Measured values as given in PubChem BioAssay (NCI).
“And” between values parts separate entries of the source, which are not always exact repeats. Equal values may be shown once.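 Results reflect a 48-hour exposure of cells in 96-well plates to compound at five concentrations. Abbreviation: GI50, concentration required for 50% inhibition of growth. TGI: total growth inhibition.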

How the values were obtained:
Assay in all cases: DTP human tumour cell line panel, 48 h
[1] = test system: A549 NSCLC
[2] = test system: HOP-92 NSCLC
[3] = test system: HT29 colon
[4] = test system: IGROV1 ovarian
[5] = test system: NCI-H23 lung
[6] = test system: OVCAR-3 ovarian
[7] = test system: OVCAR-8 ovarian
[8] = test system: MOLT-4 leukemia

Row | Compound | TGI [1] | TGI [2] [µM] | TGI [3] | TGI [4] [µM] | TGI [5] | TGI [6] | TGI [7] | GI50 [1] | GI50 [2] [µM] | GI50 [3] | GI50 [4] [µM] | GI50 [8] | TGI [8] | GI50 [5] | GI50 [6] | GI50 [7]
1 | O=S1(=O)NC2CCC3NS(=O)(=O)NC4CCC(N1)N4S(=O)(=O)N23 (configuration not stated) | > 100 µM | > 100 | > 100 µM | > 100 | > 100 µM | > 100 µM | > 100 µM | – | – | – | – | – | – | – | – | –
2 | COC(=O)c1ccc2c(c1)C(=O)c1c-2n(C)c(=O)c2cc(OC)c(OC)cc12 | > 50 µM | > 50 | > 50 µM | > 50 | > 50 µM | > 50 µM | > 50 µM | > 50 µM | 18.8 | > 50 µM | 11.8 | > 50 µM | > 50 µM | > 50 µM | 44.6 µM | > 50 µM
3 | CCC(C)[C@H](NC(=O)NC(=O)NC(=O)CI)C(=O)OC (some centres not stated) | 37 µM | 7.3 | 3.59 µM | 12.1 | 35.8 µM | 4.66 µM | 29.3 µM | 19.5 µM | 2.67 | 1.92 µM | 3.47 | 2.47 µM | 6.74 µM | 16.3 µM | 2.2 µM | 13.6 µM
4 | CCCCCCCCCCC/C=C\C[C@H](O)C/C=C1/C(=O)C=C[C@@H]1C/C=C\CCCC(=O)OC | 33.3 µM | 11.9 | 2.85 µM | 2.66 | 1.58 µM | 1.49 µM | 4.64 µM | 5.96 µM | 5.43 | 1.03 µM | 0.742 | 0.838 µM | 2.71 µM | 0.687 µM | 0.671 µM | 0.966 µM
5 | Cc1ccc(/C=C/C(=N/N=C(N)N)c2ccccc2)cc1 | 12.5 µM | 8.42 | 7.59 µM | 23.1 | 11.8 µM | 6.03 µM | 10.9 µM | 3.46 µM | 2.25 | 2.53 µM | 6.36 | 3.01 µM | 9.1 µM | 2.76 µM | 2.28 µM | 2.98 µM
6 | CC1(C)CCCC(C)(C2CCC3(C)C2C(O)CC2C4(C)CCC(O)C(C)(C)C4C(O)CC23C)O1 (configuration not stated) | 24.4 µM | 30.6 | 14 µM | 38.5 | 25.6 µM | – | 41.9 µM | – | – | – | – | – | 16.3 µM | – | – | –
7 | CSc1ccc2c(c1)N(CCC1CCCCN1C)c1ccccc1S2 (configuration not stated) | 24.1 µM and 10.3 µM | 8.51 | 15.1 µM and 7.9 µM | 20.1 | 24 µM and 22.7 µM | 23.7 µM and 21.7 µM | 27.5 µM and 29.3 µM | 10.9 µM and 2.65 µM | 2.11 | 4.08 µM and 2.54 µM | 5.89 | 3.61 µM and 3.13 µM | 13.6 µM and 10 µM | 10.3 µM and 8.49 µM | 10.7 µM and 4.28 µM | 11.9 µM and 10.3 µM
8 | Clc1nc(Cl)c2c3c(sc2n1)CCCC3 | > 100 µM | > 100 | > 100 µM | > 100 | > 100 µM | > 30.4 µM | > 100 µM | > 24.4 µM | 3.88 | 3.67 µM | 3.85 | 3.61 µM | > 100 µM | 5.92 µM | 3.3 µM | 4.38 µM
9 | COc1ccc(CNC(C)C(=O)O)cc1 (configuration not stated) | > 100 µM | > 100 | > 100 µM | > 100 | > 100 µM | > 100 µM | > 100 µM | – | – | – | – | – | > 100 µM | – | – | –
10 | N#Cc1ccsc1NC(=O)COC(=O)c1cccc(S(=O)(=O)N2CCc3ccccc32)c1 | > 100 µM | > 100 | > 100 µM | > 100 | > 100 µM | > 100 µM | – | 45.2 µM | 40.1 | 14.5 µM | 7.84 | 6.68 µM | > 100 µM | 38.9 µM | 53.7 µM | –
11 | Cn1c(=O)c2ccc(-c3ccc(Br)cc3)nc2n(C)c1=O | > 100 µM | > 100 | > 100 µM | > 100 | > 100 µM | > 100 µM | > 100 µM | – | – | – | – | – | > 100 µM | – | – | –
12 | CC(C)=CCC1=C(OCC(=O)O)C(=O)c2ccccc2C1=O | > 100 µM | > 100 | > 100 µM | > 100 | > 100 µM | – | > 100 µM | – | – | – | – | – | > 100 µM | – | – | –
13 | CCN(Cc1ccccc1Cl)c1ccc(CO)c(Cl)c1 | 18.7 µM | 8.25 | 20 µM | 0.138 | 22.6 µM | 4.32 µM | 27.1 µM | 3.06 µM | 0.932 | 5.94 µM | < 0.0418 | 15.8 µM | 38.1 µM | 7.44 µM | 0.774 µM | 12.8 µM
14 | O=C1C(=O)c2ccccc2C(O)=C1CCCc1ccc(C2CCCC2)cc1 | 32.9 µM | – | 19.5 µM | 18.4 | 22.6 µM | 20.1 µM | 60 µM | 3.36 µM | – | 5.43 µM | 3.72 | 3.72 µM | 12.3 µM | 5.19 µM | 4.91 µM | 5.8 µM
15 | CCOC(=O)c1ccc2c(c1)nc(/C=C/c1ccc(Cl)cc1)n2-c1cc(C(C)(C)C)[nH]n1 | 19.7 µM | – | > 100 µM | 33.8 | > 100 µM | 8.26 µM | 33.9 µM | 3.64 µM | – | 11.3 µM | 5.09 | 4.74 µM | > 100 µM | 19.3 µM | 2.86 µM | 5.31 µM
16 | NCCCn1c2c(c3ccc([N+](=O)[O-])cc3c1=O)C(=O)c1cc(-c3ccccc3)ccc1-2 | 0.552 µM | 3.15 | 0.368 µM | – | 2.88 µM | 3.1 µM | 0.884 µM | 0.237 µM | 1.36 | 0.19 µM | – | 0.235 µM | 0.595 µM | 1.29 µM | 1.65 µM | 0.31 µM
17 | O=[N+]([O-])c1ccc(Sc2nc(Cl)nc(NC3CCCC3)n2)cc1 | – | > 10 | > 10 µM | > 10 | > 10 µM | > 10 µM | > 10 µM | – | > 10 | > 10 µM | 2.84 | > 10 µM | > 10 µM | > 10 µM | > 10 µM | > 10 µM
18 | COc1ccc2c(c1)C1OCCNC1CC2 (configuration not stated) | > 100 µM | – | > 100 µM | > 100 | > 100 µM | – | > 100 µM | – | – | – | – | – | > 100 µM | – | – | –
19 | NCCCCCCCCCCCn1c2c(c3ccccc3c1=O)C(=O)c1ccccc1-2 | 74.7 µM | 7.05 | – | – | 32 µM | 5.96 µM | – | 20 µM | 2.65 | – | – | 1.97 µM | 3.93 µM | 11.6 µM | 2.1 µM | –
20 | CCN(CC)CCOc1ccc(/C=C2\C[C@H]3[C@H]4CC=C5C[C@@H](O)CC[C@]5(C)[C@H]4CC[C@]3(C)[C@H]2O)cc1OC | 25 µM | – | > 50 µM | > 50 | 23.9 µM | 17.8 µM | 26.5 µM | 10.7 µM | – | 10.9 µM | 1.23 | 10.5 µM | > 50 µM | 11.2 µM | 7.96 µM | 12.9 µM
21 | C[C@]12CC[C@H]3[C@@H](CCC4=CC(=O)CC[C@@]43C)[C@@H]1CC[C@@H]2C(=O)COS(=O)(=O)c1ccc(Br)cc1 | 44.6 µM | 18.3 | 30.3 µM | 3.28 | 8.62 µM | 28 µM | 14.3 µM | – | – | – | – | – | – | – | – | –
22 | CO[C@]12C=C/C(=C(/C(=O)OCc3cccnc3)C(=O)CCCCCCCC[C@@]3(OC)C=C/C(=C(/C(=O)OCc4cccnc4)C(=O)CCCCCCCC1)O3)O2 | 9.2 µM | 4.83 | > 50 µM | 14.7 | 1.87 µM | 3.84 µM | > 50 µM | 1.65 µM | 1.86 | 1.7 µM | 1.75 | – | – | 0.79 µM | 1.16 µM | 0.959 µM
23 | NC1CCC(Nc2nc(NCc3cc(Cl)ccc3O)c3ncn(C4CCCC4)c3n2)CC1 (configuration not stated) | 0.713 µM | 0.63 | 0.755 µM | 0.771 | 0.478 µM | 0.64 µM | – | 0.193 µM | 0.163 | 0.22 µM | 0.204 | 0.133 µM | 0.492 µM | 0.153 µM | 0.133 µM | –
24 | CNc1cc2nc3cc(NC)c(C)cc3cc2cc1C | – | 19.1 | 1.1 µM | 16.2 | 3.11 µM | 10 µM | 9.83 µM | – | 1.76 | 0.3 µM | 0.562 | 0.514 µM | > 100 µM | 0.624 µM | 1.32 µM | 0.754 µM
25 | O=C(NNc1ccc(F)cc1)C1CCC(CNS(=O)(=O)c2ccc(Cl)c(Cl)c2)CC1 (configuration not stated) | 4.93 µM | 37.5 | – | > 50 | – | 13.9 µM | 35.6 µM | 0.842 µM | 7.35 | – | 6.79 | – | – | – | 2.11 µM | 8.79 µM
26 | Cc1cccc2nc3cccc(C(=O)NCCNCCNCCNC(=O)c4cccc5nc6cccc(C)c6nc45)c3nc12 | – | 0.519 | 0.254 µM | > 39.3 | 0.938 µM | 2.91 µM | 1.14 µM | – | < 0.0317 | < 0.01 µM | < 0.01 | < 0.01 µM | 14.7 µM | < 0.012 µM | < 0.01 µM | < 0.01 µM
